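In this assay, cells in 96-well plates receive the compound at five concentrations for 48 hours. Endpoints are linearly interpolated between the surrounding concentrations. GI50 = concentration required for 50% inhibition of growth.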 Active and inactive are the calls of the source. Cut-off read from the data, not from the text of the source: active = GI50 up to about 1.1 µM and inactive = higher.
Tests used:
Test in all cases: NCI-60 cell line screen, 48 h
KM-20L2 = tested on: KM-20L2
OVCAR-3 = tested on: OVCAR-3
IGROV-1 = tested on: IGROV-1
SNB-19 = tested on: SNB-19
SN12C = tested on: SN12C
HOP-62 = tested on: HOP-62
SW-620 = tested on: SW-620
SNB-78 = tested on: SNB-78
RPMI-8226 = tested on: RPMI-8226
UO-31 = tested on: UO-31
SNB-75 = tested on: SNB-75
HL-60 = tested on: HL-60
EKVX = tested on: EKVX
COLO 205 = tested on: COLO 205
SF-539 = tested on: SF-539
SK-MEL-5 = tested on: SK-MEL-5
M14 = tested on: M14
TK-10 = tested on: TK-10
SR = tested on: SR
HCC 2998 = tested on: HCC 2998

Row | SMILES | GI50 (KM-20L2) | GI50 (OVCAR-3) | GI50 (IGROV-1) | GI50 (SNB-19) | GI50 (SN12C) | GI50 (HOP-62) | GI50 (SW-620) | GI50 (SNB-78) | GI50 (RPMI-8226) | GI50 (UO-31) | GI50 (SNB-75) | GI50 (HL-60) | GI50 (EKVX) | GI50 (COLO 205) | GI50 (SF-539) | GI50 (SK-MEL-5) | GI50 (M14) | GI50 (TK-10) | GI50 (SR) | GI50 (HCC 2998)
1 | Cc1n(CC(=O)c2ccc([N+](=O)[O-])cc2)c2c([n+]1CC(C)C)C(=O)c1ccccc1C2=O | < 0.01 µM (active) | < 0.0424 µM (active) | < 0.01 µM (active) | < 0.015 µM (active) | < 0.01 µM (active) | 0.29 µM (active) | < 0.01 µM (active) | < 0.0137 µM (active) | < 0.01 µM (active) | 16.1 µM (inactive) | < 0.0356 µM (active) | < 0.01 µM (active) | < 0.0109 µM (active) | < 0.01 µM (active) | < 0.01 µM (active) | < 0.0106 µM (active) | – | – | – | –
2 | Cc1nc2c(n1C)C(=O)c1nc(CBr)[nH]c(=O)c1C2=O | > 100 µM (inactive) | – | > 100 µM (inactive) | > 100 µM (inactive) | > 100 µM (inactive) | – | > 100 µM (inactive) | – | > 100 µM (inactive) | > 100 µM (inactive) | – | 38.7 µM (inactive) | 24.4 µM (inactive) | 51.5 µM (inactive) | > 100 µM (inactive) | 20.3 µM (inactive) | 35.9 µM (inactive) | > 100 µM (inactive) | – | –
3 | CCc1n[nH]c(=O)n1CC | – | > 100 µM (inactive) | > 100 µM (inactive) | > 100 µM (inactive) | > 100 µM (inactive) | > 100 µM (inactive) | > 100 µM (inactive) | – | > 100 µM (inactive) | > 100 µM (inactive) | – | 21.7 µM (inactive) | > 100 µM (inactive) | > 100 µM (inactive) | > 100 µM (inactive) | > 100 µM (inactive) | – | > 100 µM (inactive) | > 100 µM (inactive) | > 100 µM (inactive)
4 | Cc1ccc(N2Cc3c(ccc4ccccc34)OP2(=S)N2CCCC2)cc1 (stereo not drawn) | > 100 µM (inactive) | > 40.1 µM (inactive) | > 100 µM (inactive) | > 100 µM (inactive) | > 100 µM (inactive) | > 100 µM (inactive) | > 100 µM (inactive) | > 100 µM (inactive) | > 22 µM (inactive) | 85.7 µM (inactive) | > 100 µM (inactive) | > 100 µM (inactive) | > 100 µM (inactive) | > 100 µM (inactive) | > 100 µM (inactive) | > 100 µM (inactive) | – | – | – | > 100 µM (inactive)
5 | COc1cccc(CC2Cc3ccccc3CC(=O)N2)c1 (stereo not drawn) | – | 20.4 µM (inactive) | 16.9 µM (inactive) | 90.8 µM (inactive) | 69 µM (inactive) | 9.18 µM (inactive) | 85.1 µM (inactive) | – | 37.6 µM (inactive) | 20.8 µM (inactive) | > 100 µM (inactive) | 40.1 µM (inactive) | 35.6 µM (inactive) | 74.1 µM (inactive) | 88.5 µM (inactive) | 20.6 µM (inactive) | 14 µM (inactive) | 29.9 µM (inactive) | > 100 µM (inactive) | 72.1 µM (inactive)
6 | O=NN(CC1(O)OCC(O)C(O)C1O)C(Cc1c[nH]c2ccccc12)C(=O)O (stereo not drawn) | > 100 µM (inactive) | > 100 µM (inactive) | > 100 µM (inactive) | – | – | > 100 µM (inactive) | > 100 µM (inactive) | > 100 µM (inactive) | > 100 µM (inactive) | > 10 µM (inactive) | > 100 µM (inactive) | > 100 µM (inactive) | > 100 µM (inactive) | > 100 µM (inactive) | > 100 µM (inactive) | > 100 µM (inactive) | > 100 µM (inactive) | > 100 µM (inactive) | – | > 100 µM (inactive)
7 | c1ccc2c(NCCCCCCCCNc3cccc4ccccc34)cccc2c1 | 25.2 µM (inactive) | 34 µM (inactive) | 49.8 µM (inactive) | > 100 µM (inactive) | 35.6 µM (inactive) | > 100 µM (inactive) | 21.1 µM (inactive) | 46.8 µM (inactive) | > 10 µM (inactive) | 26.2 µM (inactive) | 21.4 µM (inactive) | 22.7 µM (inactive) | > 10 µM (inactive) | 18.6 µM (inactive) | 27 µM (inactive) | > 10 µM (inactive) | 19.9 µM (inactive) | 24.3 µM (inactive) | – | > 100 µM (inactive)
8 | O=S(=O)(c1ccc(I)cc1)N(c1ccccc1)S(=O)(=O)C(F)(F)C(F)(F)C(F)(F)C(F)(F)F | – | 22.6 µM (inactive) | > 100 µM (inactive) | 74.3 µM (inactive) | > 100 µM (inactive) | 24.3 µM (inactive) | 34.7 µM (inactive) | – | 42.7 µM (inactive) | 55.8 µM (inactive) | – | 97.7 µM (inactive) | 40.8 µM (inactive) | 40 µM (inactive) | 35.6 µM (inactive) | – | 34.8 µM (inactive) | 14.2 µM (inactive) | 56.5 µM (inactive) | –
9 | COc1cccc(NC(=O)CC(=O)NN2C(=O)/C(=C/c3ccc(N(CCC#N)CCC#N)cc3)N=C2c2cc([N+](=O)[O-])ccc2Cl)c1 | 25.8 µM (inactive) | > 100 µM (inactive) | > 100 µM (inactive) | > 100 µM (inactive) | > 100 µM (inactive) | > 100 µM (inactive) | > 100 µM (inactive) | > 100 µM (inactive) | 30.3 µM (inactive) | > 100 µM (inactive) | – | – | 56.1 µM (inactive) | > 100 µM (inactive) | > 100 µM (inactive) | 42.2 µM (inactive) | > 100 µM (inactive) | > 100 µM (inactive) | 22.4 µM (inactive) | 96.8 µM (inactive)
10 | CC(=O)Oc1ccccc1[C@H]1CC(=O)C[C@H](c2ccccc2OC(C)=O)C12C(=O)c1ccccc1C2=O | – | 22.1 µM (inactive) | 44.5 µM (inactive) | 60.4 µM (inactive) | 37.4 µM (inactive) | 30.4 µM (inactive) | – | – | 59.6 µM (inactive) | 36.3 µM (inactive) | 17.9 µM (inactive) | > 100 µM (inactive) | – | 22.3 µM (inactive) | – | 22.4 µM (inactive) | 19.9 µM (inactive) | – | 79.4 µM (inactive) | 25.5 µM (inactive)
11 | C=C1C2=C(CCCC2)C(=O)OC12CCCCC2 | > 100 µM (inactive) | 43.5 µM (inactive) | 88.9 µM (inactive) | > 100 µM (inactive) | > 100 µM (inactive) | > 100 µM (inactive) | > 100 µM (inactive) | – | 35.5 µM (inactive) | 35.1 µM (inactive) | 23.8 µM (inactive) | 27.1 µM (inactive) | 52.1 µM (inactive) | 51.2 µM (inactive) | > 100 µM (inactive) | 38 µM (inactive) | > 100 µM (inactive) | > 100 µM (inactive) | 38.9 µM (inactive) | > 100 µM (inactive)
12 | Cc1[nH]c(=O)[nH]c(=O)c1/C=C/C(=O)NC(CO)CC(C)C (stereo not drawn) | 88.1 µM (inactive) | 164 µM (inactive) | > 375 µM (inactive) | 356 µM (inactive) | 274 µM (inactive) | > 375 µM (inactive) | 351 µM (inactive) | 373 µM (inactive) | > 375 µM (inactive) | > 375 µM (inactive) | 226 µM (inactive) | > 361 µM (inactive) | > 375 µM (inactive) | 242 µM (inactive) | > 375 µM (inactive) | > 375 µM (inactive) | – | – | – | 222 µM (inactive)
13 | COc1ccc(CCn2nccc2C)cc1 | – | > 100 µM (inactive) | > 100 µM (inactive) | > 100 µM (inactive) | 80.9 µM (inactive) | > 100 µM (inactive) | > 100 µM (inactive) | – | > 100 µM (inactive) | 59.6 µM (inactive) | 50.7 µM (inactive) | > 100 µM (inactive) | 93.8 µM (inactive) | > 100 µM (inactive) | > 100 µM (inactive) | > 100 µM (inactive) | > 100 µM (inactive) | > 100 µM (inactive) | > 100 µM (inactive) | –
14 | Cc1ccc(SSCCCCCS(=O)O)cc1 | – | 22.2 µM (inactive) | – | 35.4 µM (inactive) | 20.6 µM (inactive) | 29.9 µM (inactive) | – | 25.4 µM (inactive) | 24.9 µM (inactive) | 19.9 µM (inactive) | 29.6 µM (inactive) | 16.6 µM (inactive) | 45.3 µM (inactive) | – | 16.2 µM (inactive) | – | 40.4 µM (inactive) | 26.9 µM (inactive) | 4.62 µM (inactive) | 46.7 µM (inactive)
15 | NCCCCCC(CCN)SCC1OC(n2cnc3c(N)ncnc32)C(O)C1O (stereo not drawn) | 482 µM (inactive) | > 1500 µM (inactive) | 1180 µM (inactive) | 615 µM (inactive) | > 574 µM (inactive) | > 809 µM (inactive) | > 1500 µM (inactive) | > 1020 µM (inactive) | 292 µM (inactive) | 394 µM (inactive) | > 1500 µM (inactive) | 519 µM (inactive) | > 555 µM (inactive) | > 798 µM (inactive) | 483 µM (inactive) | > 1110 µM (inactive) | – | – | – | > 1150 µM (inactive)
16 | COc1ccccc1-c1cc(O)c2cc(C)cnc2n1 | – | – | 16.4 µM (inactive) | 71.9 µM (inactive) | 66.4 µM (inactive) | 42.9 µM (inactive) | 24.7 µM (inactive) | – | 30.4 µM (inactive) | 47.9 µM (inactive) | – | – | 52.1 µM (inactive) | 14.8 µM (inactive) | 38.5 µM (inactive) | – | 37.9 µM (inactive) | > 100 µM (inactive) | > 100 µM (inactive) | 62.1 µM (inactive)

From ChEMBL document CHEMBL1201862, “PubChem BioAssay data set” (2004)
